Values after ≈ are worked out from the molar mass of the structure shown.
Columns and labels:
[1] = Solubility test; format: physicochemical; details: artificial intestinal juice (phosphate buffer) with 1% DMSO, fassgf or other biorelevant, kinetic from dmso stock, artificial intestinal juice pH 6.8, 16 hours at 25° C.
Procedure: The solubility of each compound is determined under 1% DMSO addition conditions. A 10 mmol/L solution of the compound is prepared with DMSO, and 6 μL of the compound solution is added to 594 μL of an artificial intestinal juice (water and 118 mL of 0.2 mol/L NaOH reagent are added to 250 mL of 0.2 mol/L potassium dihydrogen phosphate reagent to reach 1000 mL) with a pH of 6.8. The mixture is left standing for 16 hours at 25° C., and the mixture is vacuum-filtered. The filtrate is two-fold diluted with methanol/water=1/1, and the compound concentration in the filtrate is measured with HPLC or LC/MS/MS by the absolute calibration method.

[2] = target: T1, human TRPV4 (Homo sapiens (Human), UniProt Q9HBA0); experiment: Test Example 3: measurement of TRPV4 inhibitory activity (Fluo-3, FDSS 3000, 4α-PDD); format: cell-based; details: hTRPV4/CHO cells, calculated from IC50 and 4α-PDD EC50
T1 sequence (Q9HBA0 whole entry): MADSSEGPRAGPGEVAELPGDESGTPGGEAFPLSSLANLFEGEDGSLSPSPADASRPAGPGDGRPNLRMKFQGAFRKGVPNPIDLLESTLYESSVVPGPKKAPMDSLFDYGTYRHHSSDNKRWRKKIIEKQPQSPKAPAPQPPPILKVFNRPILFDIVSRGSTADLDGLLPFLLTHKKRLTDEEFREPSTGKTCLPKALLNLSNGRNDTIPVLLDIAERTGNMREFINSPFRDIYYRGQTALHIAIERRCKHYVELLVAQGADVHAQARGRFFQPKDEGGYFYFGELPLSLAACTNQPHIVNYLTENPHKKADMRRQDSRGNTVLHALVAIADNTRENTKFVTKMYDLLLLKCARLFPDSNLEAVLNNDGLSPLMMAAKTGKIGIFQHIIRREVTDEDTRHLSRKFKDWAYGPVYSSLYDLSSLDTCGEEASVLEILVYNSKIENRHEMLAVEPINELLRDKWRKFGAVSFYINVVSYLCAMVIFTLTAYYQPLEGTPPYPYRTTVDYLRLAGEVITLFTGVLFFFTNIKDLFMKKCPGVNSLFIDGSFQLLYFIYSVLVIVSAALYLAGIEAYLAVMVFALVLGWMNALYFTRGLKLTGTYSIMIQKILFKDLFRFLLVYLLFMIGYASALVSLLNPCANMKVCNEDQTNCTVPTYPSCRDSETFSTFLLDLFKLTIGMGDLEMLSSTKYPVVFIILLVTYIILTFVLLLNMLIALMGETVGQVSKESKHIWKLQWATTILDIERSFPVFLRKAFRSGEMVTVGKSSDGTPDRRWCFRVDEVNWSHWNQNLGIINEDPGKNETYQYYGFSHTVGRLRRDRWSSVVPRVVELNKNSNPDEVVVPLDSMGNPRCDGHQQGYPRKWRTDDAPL
Procedure: (§1) For each compound, TRPV4 inhibitory activity was measured using cells.
(§2) (1) The TRPV4 inhibitory activity was measured using CHO-K1 cells stably expressing human TRPV4 (hTRPV4/CHO cells).
(2) Frozen cells were thawed and subcultured with the medium (MEM-α, 10% FBS, […], 50 unit/mL penicillin, 50 μg/mL streptomycin, 1 mg/mL G418).
(3) The 96-well plates which hTRPV4/CHO cells were seeded at densities of 2×10^4 cells/well in the culture medium and cultured in a CO2 incubator in the presence of 5% CO2 at 37° C. for 24 h was used as assay plates.
(4) The assay plate was washed with assay buffer (Hanks, […], […], pH7.4).
(5) Fluo-3, fluorescent dye for Ca influx assay was added to each well, then the assay plate was incubated in a CO2 incubator in the presence of 5% CO2 at 37° C. for one hour (final conc.; 5 μmmol/L Fluo-3).
(6) The assay plate was washed with the assay buffer, and the buffer was remained at 30 μL/well. Then the assay plate was incubated for 10 min at 37° C.
(7) Diluted compound solution was dispensed to each well in the compound plate, and mixed with built-in Pipette and Mixer of the fluorescence analysis system FDSS 3000 (Hamamatsu Photonics).
(8) 50 μL of 4α-PDD solution (concluding 0.1% Pluronic F-127) was applied to each well of assay plate and mixed.
(9) The fluorescent intensity was measured by FDSS 3000 for 8 min from the point of time addition the compound solution, at Ex 480 nm, Em 540 nm wavelength.
TRPV4 inhibitory activity (Ki value) of a compound was evaluated according to the following procedure.
(10) In the presence of the compound, the difference between maximal and minimal of fluorescent intensity value for 8 min from just before addition of 4α-PDD solution was calculated, and it was referred as Max-Min value. Max-Min value of the Ruthenium Red at 10 μM was defined as 100% inhibitory activity, Max-Min value in the absence of the compound was defined as 0% inhibitory activity. The TRPV4 inhibitory activity of the compound was calculated by the following formula. (1−(Max-Min value of the compound−100% inhibitory activity)/(0% inhibitory activity−100% inhibitory activity))×100 (11) By the following formula, inhibitory activity was calculated at 10 points with three fold serial dilution, in the final concentration of the compound from 10 μmmol/L to 0.5 nmol/L. The IC50 value was calculated by dose-response curve. 100−[(fluorescent intensity in the presence of the compound−fluorescent intensity of back ground)/(total fluorescent intensity−fluorescent intensity of back ground)]×100 (12) In the presence of the compound, activity of 4α-PDD was measured at 9 points with three fold serial dilution from 20 μmol/L. Activity of 4α-PDD was calculated by the following formula. (Max-Min value of the each 4α-PDD concentration−0% activity)/(100% activity−0% activity))×100 (13) Effective activity was calculated in 4α-PDD the above. The EC50 value was calculated by dose-response curve. (14) The Ki value of a compound was calculated by the following formula. Ki (nmol/L)=IC50 value (nmol/L)/([A]/EC50 value (nmol/L)) [A]; Concentration of agonist (nmol/L)

[3] = target: T1, human TRPV4; experiment: Test Example 1: measurement of TRPV4 inhibitory activity (Fluo 4-AM, FLIPR TETRA, 4α-PDD 1 μmol/L); format: cell-based; details: hTRPV4/CHO cells; for IC50: 4α-PDD 1 μmol/L
Procedure: as §1, §2
(2) In the day before the experimental day, frozen cell were thawed and washed with the culture medium (MEM-α, 10% FBS, 2 mmol/L GlutaMax, 50 unit Penicillin, 50 μg/mL Streptomycin). Then cells were suspended in the culture medium.
(3) The 384-well plates which hTRPV4/CHO cells were seeded at densities of 4000 cells/well in the culture medium and cultured in a CO2 incubator in the presence of 5% CO2 at 37° C. for overnight was used as assay plates.
(4) The assay plate was washed with assay buffer (Hanks, 20 mmol/L HEPES, 2.5 mmol/L probenecid, pH7.4), and the buffer were remained at 20 μL/well.
(5) 10 μl of dye loading buffer (9 μmol/L Fluo 4-AM, 0.09% Pluronic F-127/assay buffer) was added to each well, then the assay plate was incubated in a CO2 incubator in the presence of 5% CO2 at 37° C. for one hour. (final 3 μmol/L Fluo4-AM).
(6) The assay plate was washed with the assay buffer, and the buffers were remained at 20 μL/well. Then the assay plate was incubated for 10 min at room temperature.
(7) Diluted compound solution was dispensed to each well in the compound plate, and mixed with built-in Pipette and Mixer of the Fluorescence analysis system FLIPR TETRA (Molecular devices).
(8) After incubation for 5 min, 20 μL of 4α-PDD solution were applied to each well of assay plate and mixed with the FLIPR TETRA. (final 1 μmol/L 4α-PDD)
(9) The fluorescent intensity was measured with FLIPR TETRA system for 10 min from the point of time addition the compound solution, at Ex 470-495 nm, Em 515-575 nm wavelength.
TRPV4 inhibitory activity (IC50 value and Ki value) of a compound was evaluated according to the following procedure.
(10) In the presence of the compound, the difference between maximal and minimal of fluorescent intensity value for 5 min from just before addition of 4α-PDD solution was calculated, and it was referred as Max-Min value. Max-Min value of the Ruthenium Red at 20 μM was defined as 100% inhibitory activity, Max-Min value in the absence of the compound was defined as 0% inhibitory activity. The TRPV4 inhibitory activity of the compound was calculated by the following formula. (1−(Max-Min value of the compound−100% inhibitory activity)/(0% inhibitory activity−100% inhibitory activity))×100 (11) Inhibitory activity was calculated at 10 points with three fold serial dilution, in the final concentration of the compound from 10 μmmol/L to 0.5 nmol/L, the IC50 value was calculated by logistic approximation method. (12) In the absence of the compound, the fluorescent intensity was measured as the same method with 10, 1, 0.5, 0.2, and 0 μmol/L as final concentration of 4α-PDD. The difference of minimal and maximal fluorescent intensity value for 5 min from just before addition of 4α-PDD solution was calculated, and it was referred as Max-Min value. Max-Min value of the 4α-PDD at 10 μmol/L was defined as 100% activity, Max-Min value in the absence of 4α-PDD was defined as 0% activity. The TRPV4 activity of each concentration of 4α-PDD was calculated by the following formula. (Max-Min value of the each 4α-PDD concentration−0% activity)/(100% activity−0% activity))×100 (13) Effective activity was calculated in 5 concentrations of 4α-PDD the above. The EC50 value was calculated by logistic approximation method. The Ki value of a compound was calculated by the following formula. Ki (nmol/L)=IC50 value (nmol/L)/(1+[…] (test 4α-PDD concentration (nmol/L)/EC50 value (nmol/L))

[4] = Metabolism stability test; format: in vitro ADME; details: human liver microsomes, 30 minutes
Procedure: Using a commercially available pooled human hepatic microsomes, a test compound was reacted for a constant time, a remaining rate was calculated by comparing a reacted sample and an unreacted sample, thereby, a degree of metabolism in liver was assessed.
A reaction was performed (oxidative reaction) at 37° C. for 0 minute or 30 minutes in the presence of 1 mmol/L NADPH in 0.2 mL of a buffer (50 mmol/L Tris-HCl pH 7.4, 150 mmol/L potassium chloride, 10 mmol/L magnesium chloride) containing 0.5 mg protein/mL of human liver microsomes. After the reaction, 50 μL of the reaction mixture was added to 100 μL of a methanol/acetonitrile=1/1 (v/v), mixed and centrifuged at 3000 rpm for 15 minutes. The test compound in the supernatant was quantified by LC/MS/MS, and a remaining amount of the test compound after the reaction was calculated, letting a compound amount at 0 minute reaction time to be 100%. Hydrolysis reaction was performed in the absence of NADPH and glucuronidation reaction was in the presence of 5 mM UDP-glucuronic acid in place of NADPH, followed by similar operations.

[5] = target: human ether-a-go-go related gene (hERG) channel (Homo sapiens (Human), UniProt Q12809); experiment: hERG test (whole cell patch clamp, IKr); format: cell-based; details: 1 μmol/L of test compound, HEK293 cells expressing hERG
human ether-a-go-go related gene (hERG) channel, sequence (Q12809 whole entry): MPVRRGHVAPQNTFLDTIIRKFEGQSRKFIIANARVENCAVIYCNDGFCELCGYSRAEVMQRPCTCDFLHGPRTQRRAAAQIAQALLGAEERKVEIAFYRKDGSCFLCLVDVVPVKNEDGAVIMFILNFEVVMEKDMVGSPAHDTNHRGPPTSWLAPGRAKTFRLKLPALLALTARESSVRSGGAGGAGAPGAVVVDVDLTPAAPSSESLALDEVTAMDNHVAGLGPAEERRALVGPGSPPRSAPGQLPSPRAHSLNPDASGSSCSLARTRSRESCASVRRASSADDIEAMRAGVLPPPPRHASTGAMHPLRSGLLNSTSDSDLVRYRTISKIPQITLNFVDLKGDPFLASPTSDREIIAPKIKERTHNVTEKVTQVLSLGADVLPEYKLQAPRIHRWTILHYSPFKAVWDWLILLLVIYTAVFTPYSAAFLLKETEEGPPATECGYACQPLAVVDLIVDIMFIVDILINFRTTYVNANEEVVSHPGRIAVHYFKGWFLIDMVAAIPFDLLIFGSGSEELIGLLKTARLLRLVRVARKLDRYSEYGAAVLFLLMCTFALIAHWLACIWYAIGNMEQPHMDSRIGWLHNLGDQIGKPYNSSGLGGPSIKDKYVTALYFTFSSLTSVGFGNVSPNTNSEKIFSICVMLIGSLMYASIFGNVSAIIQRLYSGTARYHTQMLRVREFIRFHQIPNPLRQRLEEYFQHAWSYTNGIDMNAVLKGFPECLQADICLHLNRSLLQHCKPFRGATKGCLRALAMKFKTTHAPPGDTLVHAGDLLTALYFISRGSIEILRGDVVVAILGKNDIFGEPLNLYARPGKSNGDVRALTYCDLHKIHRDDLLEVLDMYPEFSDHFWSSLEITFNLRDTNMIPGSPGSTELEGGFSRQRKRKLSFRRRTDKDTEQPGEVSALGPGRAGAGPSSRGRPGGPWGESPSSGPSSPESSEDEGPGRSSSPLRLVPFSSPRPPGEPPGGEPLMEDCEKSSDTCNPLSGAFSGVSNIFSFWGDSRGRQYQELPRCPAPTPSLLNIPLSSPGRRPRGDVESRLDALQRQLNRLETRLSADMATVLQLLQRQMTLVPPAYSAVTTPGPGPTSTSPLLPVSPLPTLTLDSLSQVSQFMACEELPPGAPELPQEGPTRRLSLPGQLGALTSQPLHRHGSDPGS
Text: For the purpose of assessing risk of an electrocardiogram QT interval prolongation, effects on delayed rectifier K^+ current (IKr), which plays an important role in the ventricular repolarization process, was studied using HEK293 cells expressing human ether-a-go-go related gene (hERG) channel.
After a cell was retained at a membrane potential of −80 mV by whole cell patch clamp method using an automated patch clamp system (PatchXpress 7000A, Axon Instruments Inc.), IKr induced by depolarization pulse stimulation at +40 mV for 2 seconds and, further, repolarization pulse stimulation at −50 mV for 2 seconds was recorded. […] From the recording IKr, an absolute value of the tail peak current was measured based on the current value at the resting membrane potential using an analysis software (DataXpress ver. 1, Molecular Devices Corporation). Further, the % inhibition relative to the tail peak current before application of the test substance was calculated, and compared with the vehicle-applied group (0.1% dimethyl sulfoxide solution) to assess influence of the test substance on IKr.

[6] = compound concentration 2 μmol/L
[7] = compound concentration 0.5 μmol/L

solubility at 16 h [1] | Ki [2] | IC50 [3] | remaining rate (metabolism stability) [4, 6] | remaining rate (metabolism stability) [4, 7] | Ki ([3]; calculated from IC50 and 4α-PDD EC50) | Compound | hERG % inhibition [5]
> 50 µM | 3070 nM | – | 71.4% | – | – | Cc1c(C(=O)Nc2cnccn2)cc(-c2ccccc2)n1CCCN1CCOCC1 [Compound I-003] | –
> 50 µM | 1500 nM | – | 89.1% | – | – | Cc1c(C(=O)Nc2nccs2)cc(-c2ccccc2)n1CCCN1CCOCC1 [Compound I-019] | –
> 50 µM | 379 nM | 610 nM | – | – | – | Cc1c(C(=O)Nc2cccc(C(F)(F)F)c2)cc(-c2cccnc2)n1CCCN1CCOCC1 [Compound I-021] | –
> 50 µM | 1440 nM | – | – | – | – | Cc1c(NC(=O)c2cccc(C(F)(F)F)c2)cc(-c2ccccc2)n1CCCN1CCOCC1 [Compound I-082] | 13.5%

Continued, compound first:

Compound | solubility at 16 h [1] | Ki [2] | IC50 [3] | remaining rate (metabolism stability) [4, 6] | remaining rate (metabolism stability) [4, 7] | Ki ([3]; calculated from IC50 and 4α-PDD EC50) | hERG % inhibition [5]
Cc1c(C(=O)Nc2cccc(C(F)(F)F)c2)cc(C(C)(C)C)n1CCCN1CCOCC1 [Compound I-002] | 19.3 µM (≈ 8.71 µg/mL) | 197 nM | 360 nM | – | – | – | –
Cc1c(C(=O)Nc2ccccc2)cc(-c2ccccc2)n1CCCN1CCOCC1 [Compound I-009] | > 50 µM | 678 nM | 1500 nM | – | – | – | –
Cc1c(C(=O)Nc2cccc(C(F)(F)F)c2)cc(-c2ccccc2)n1CCCN(CCO)CCO [Compound I-016] | > 50 µM | 191 nM | 130 nM | – | – | – | –
Cc1c(C(=O)Nc2ccccc2C(F)(F)F)cc(-c2ccccc2)n1CCCN1CCOCC1 [Compound I-022] | > 50 µM | 2480 nM | 2400 nM | – | – | – | –
Cc1c(C(=O)Nc2cccc(C(F)(F)F)c2)cc(-c2ccccc2)n1CCCN [Compound I-023] | – | 605 nM | – | – | 96.9% | – | –
Cc1c(C(=O)Nc2cccc(C(F)(F)F)c2)cc(-c2ccccc2)n1CCCN(C)CC[C@H](O)[C@H](O)CO [Compound I-035] | > 50 µM | 771 nM | – | – | 82.2% | – | –
Cc1c(C(=O)Nc2cccc(C(F)(F)F)c2)cc(-c2ccccc2)n1CCCN(C)CC1CCN(C)CC1 [Compound I-039] | > 50 µM | 282 nM | – | – | – | – | –
Cc1c(C(=O)Nc2cccc(C(F)(F)F)c2)cc(-c2ccccc2)n1CCCN1CCNC(=O)C1 [Compound I-071] | 18.5 µM (≈ 8.96 µg/mL) | 196 nM | 260 nM | – | – | – | –
Cc1c(C(=O)Nc2cccc(C(F)(F)F)c2)cc(C2CCNCC2)n1CCCN1CCOCC1 [Compound I-076] | > 50 µM | – | 9700 nM | – | 92.7% | 4700 nM | –
Cc1c(NS(=O)(=O)c2cccc(C(F)(F)F)c2)cc(-c2ccccc2)n1CCCN1CCOCC1 [Compound I-080] | 24.3 µM (≈ 12.3 µg/mL) | 1800 nM | 7400 nM | – | – | – | –

Reference: patent publication US9340500B2, “Aromatic heterocyclic derivative having TRPV4-inhibiting activity” (SHIONOGI & CO., LTD., priority 2011, dated 2016)
